Values joined by “and” are separate entries in the source; they are usually repeats but may differ in a detail not shown here. Equal entries are not always repeated. Toxic doses and inconclusive results are not listed. Rule as the data show it: active = T/C of 150% or more; inactive = T/C below 125%.
System: L1210 leukemia ip in BDF1 mice, survival T/C
Assay: NCI In Vivo Anticancer Drug Screen. Data for tumor model L1210 Leukemia (intraperitoneal) in B6D2F1 (BDF1) mice
Conditions: endpoint: mean survival time, higher = longer survival
Procedure, shortened: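 Antitumor effect is assessed in tumor-bearing animals. Survival in the compound arm is compared with a vehicle-dosed control arm and expressed as their quotient.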

[1] = dose: 100.0 mg/kg/injection, schedule: Q04DX003 (ip), vehicle: Klucel (hydroxypropylcellulose) (HPC)
[2] = dose: 200.0 mg/kg/injection, schedule: Q04DX003 (ip), vehicle: Klucel (hydroxypropylcellulose) (HPC)
[3] = dose: 50.0 mg/kg/injection, schedule: Q01DX009 (ip), vehicle: saline
[4] = dose: 100.0 mg/kg/injection, schedule: Q01DX009 (ip), vehicle: saline
[5] = dose: 100.0 mg/kg/injection, schedule: Q01DX001 (ip), vehicle: saline
[6] = dose: 200.0 mg/kg/injection, schedule: Q01DX001 (ip), vehicle: saline
[7] = dose: 400.0 mg/kg/injection, schedule: Q01DX001 (ip), vehicle: saline

Measured: T/C

C=CCOC(=O)CCOCC
inactive: dose: 55.0 mg/kg/injection, schedule: Q01DX Z (ip), vehicle: methylcellulose (MC) 90 % of control | dose: 83.0 mg/kg/injection, schedule: Q01DX Z (ip), vehicle: methylcellulose (MC) 94 % of control | dose: 125.0 mg/kg/injection, schedule: Q01DX Z (ip), vehicle: methylcellulose (MC) 90 % of control

NC1CCCC[N-]1.NC1CCCC[N-]1.NC1CCCC[N-]1.[Cl][Cr]([Cl])[Cl] (stereo not given)
inactive: dose: 18.75 mg/kg/injection, schedule: Q04DX003 (ip), vehicle: saline 94 % of control | dose: 37.5 mg/kg/injection, schedule: Q04DX003 (ip), vehicle: saline 92 % of control | dose: 75.0 mg/kg/injection, schedule: Q04DX003 (ip), vehicle: saline 89 % of control

CCCCNC(=S)Nc1ccccc1
inactive: dose: 75.0 mg/kg/injection, schedule: Q01DX001 (ip), vehicle: other 117 % of control | dose: 150.0 mg/kg/injection, schedule: Q01DX001 (ip), vehicle: other 117 % of control | dose: 300.0 mg/kg/injection, schedule: Q01DX001 (ip), vehicle: other 102 % of control

Cc1ccc(CNc2ccc(I)cc2)cc1
inactive: dose: 100.0 mg/kg/injection, schedule: Q01DX009 (ip), vehicle: saline with Tween-80 96 % of control | dose: 200.0 mg/kg/injection, schedule: Q01DX009 (ip), vehicle: saline with Tween-80 96 % of control | dose: 400.0 mg/kg/injection, schedule: Q01DX009 (ip), vehicle: saline with Tween-80 98 % of control

Cc1ccccc1-n1c(C)cc(=O)c(C(=O)Cl)c1C
inactive: dose: 25.0 mg/kg/injection, schedule: Q04DX003 (ip), vehicle: Klucel (hydroxypropylcellulose) (HPC) 95 % of control | dose: 50.0 mg/kg/injection, schedule: Q04DX003 (ip), vehicle: Klucel (hydroxypropylcellulose) (HPC) 95 % of control | dose: 75.0 mg/kg/injection, schedule: Q04DX003 (ip), vehicle: Klucel (hydroxypropylcellulose) (HPC) 97 % of control | [1] 103 % of control | [2] 110 % of control

OCCOc1ccc(Br)cc1
inactive: dose: 100.0 mg/kg/injection, schedule: Q04DX002 (ip), vehicle: Klucel (hydroxypropylcellulose) (HPC) 92 % of control | dose: 200.0 mg/kg/injection, schedule: Q04DX002 (ip), vehicle: Klucel (hydroxypropylcellulose) (HPC) 95 % of control | dose: 400.0 mg/kg/injection, schedule: Q04DX002 (ip), vehicle: Klucel (hydroxypropylcellulose) (HPC) 92 % of control

CCOC(=O)C1(C(C)C)OC2(O)CCCCCN2C1=O (stereo not given)
inactive: [3] 95 % of control | [4] 100 % of control | dose: 100.0 mg/kg/injection, schedule: Q04DX002 (ip), vehicle: saline 89 % of control | dose: 200.0 mg/kg/injection, schedule: Q01DX009 (ip), vehicle: saline 95 % of control | dose: 200.0 mg/kg/injection, schedule: Q04DX002 (ip), vehicle: saline 92 % of control

Cc1ccccc1N=Nc1c(O)n(-c2ccc(I)cc2)c(=S)n(-c2ccccc2)c1=O
inactive: dose: 37.5 mg/kg/injection, schedule: Q01DX001 (ip), vehicle: Klucel (hydroxypropylcellulose) (HPC) 103 % of control | dose: 75.0 mg/kg/injection, schedule: Q01DX001 (ip), vehicle: Klucel (hydroxypropylcellulose) (HPC) 113 % of control | dose: 150.0 mg/kg/injection, schedule: Q01DX001 (ip), vehicle: Klucel (hydroxypropylcellulose) (HPC) 105 % of control

CC1=NN(c2ccc(S(=O)(=O)O)cc2)C(=O)/C1=C/C(C#N)C#N
inactive: dose: 50.0 mg/kg/injection, schedule: Q01DX001 (ip), vehicle: saline 105 % of control | [5] 98 % of control | [1] 92 % of control | [6] 108 % of control | [2] 105 % of control | [7] 108 % of control | dose: 400.0 mg/kg/injection, schedule: Q04DX003 (ip), vehicle: Klucel (hydroxypropylcellulose) (HPC) 94 % of control

O=S(=O)(Nc1nccs1)c1ccc(Nc2ccnc3cc(Cl)ccc23)cc1
inactive: [5] 93 % of control | [6] 95 % of control | [7] 87 % of control

CC1CN(c2ccc([N+](=O)[O-])cc2)C(C)CN1 (stereo not given)
inactive: dose: 6.25 mg/kg/injection, schedule: Q01DX009 (ip), vehicle: saline 102 % of control | dose: 12.5 mg/kg/injection, schedule: Q01DX009 (ip), vehicle: saline 91 % of control | dose: 25.0 mg/kg/injection, schedule: Q01DX009 (ip), vehicle: saline 102 % of control | [3] 97 % of control and 101 % of control | [4] 88 % of control | dose: 100.0 mg/kg/injection, schedule: Q04DX003 (ip), vehicle: saline 98 % of control | dose: 200.0 mg/kg/injection, schedule: Q04DX003 (ip), vehicle: saline 100 % of control

— PubChem BioAssay AID248 (DTP/NCI, 2004)
